Our source for the IC50 values is US20250320184A1 (SIRONAX LTD., priority 2022, published 2025).

This assay concerns the target T1, SARM1 (50-724) (Homo sapiens, UniProt Q6SZW1).
T1 sequence (Q6SZW1 50-724): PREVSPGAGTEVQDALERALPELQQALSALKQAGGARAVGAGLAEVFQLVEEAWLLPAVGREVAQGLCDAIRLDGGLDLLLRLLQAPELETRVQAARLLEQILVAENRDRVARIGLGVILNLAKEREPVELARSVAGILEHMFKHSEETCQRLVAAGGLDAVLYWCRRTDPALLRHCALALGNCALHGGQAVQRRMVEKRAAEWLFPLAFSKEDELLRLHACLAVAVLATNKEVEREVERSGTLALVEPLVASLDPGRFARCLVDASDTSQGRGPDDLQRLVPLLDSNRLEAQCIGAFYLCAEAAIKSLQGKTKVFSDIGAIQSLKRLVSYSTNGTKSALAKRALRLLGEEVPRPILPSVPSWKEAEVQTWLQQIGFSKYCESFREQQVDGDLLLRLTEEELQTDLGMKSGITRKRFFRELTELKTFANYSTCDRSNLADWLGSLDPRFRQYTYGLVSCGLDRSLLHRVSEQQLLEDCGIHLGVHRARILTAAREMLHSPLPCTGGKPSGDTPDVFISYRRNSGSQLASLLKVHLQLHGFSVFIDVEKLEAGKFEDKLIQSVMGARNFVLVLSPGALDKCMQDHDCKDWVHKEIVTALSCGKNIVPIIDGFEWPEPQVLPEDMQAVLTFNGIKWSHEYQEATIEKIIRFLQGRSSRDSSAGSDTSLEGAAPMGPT
Description: biochemical.
Description: An enzymatic assay was performed in a 384-well plate using Dulbecco's phosphate-buffered saline (PBS) as the reaction buffer. […] The reaction was initiated by adding a mixture of 200 μM nicotinamide mononucleotide (NMN) as activator and 100 μM NAD^+ as substrate. After 1 h of incubation at room temperature, the reaction was terminated with 10 times volume of 70% acetonitrile, then centrifuged at 3800 rpm for 10 min.
As to `Cc1c(Br)cccc1S(=O)(=O)Nc1ccc2c(c1)C(=O)NCCC2` [Compound 40, 3-bromo-2-methyl-N-(1-oxo-2,3,4,5-tetrahydro-1H-benzo[c]azepin-8-yl)benzenesulfonamide], the half-maximal inhibitory concentration (IC50) (as a rule, the concentration needed to halve the response being measured) was less than 100 nM. As for `O=C1NCCCc2ccc(NS(=O)(=O)c3cccc(Cl)c3Cl)cc21` [Compound 41, 2,3-dichloro-N-(1-oxo-2,3,4,5-tetrahydro-1H-benzo[c]azepin-8-yl)benzenesulfonamide], the figure is less than 100 nM; as for `O=S(=O)(Nc1ccc2cccnc2c1)c1cccc(Cl)c1Cl` [Compound 42, 2,3-dichloro-N-(quinolin-7-yl)benzenesulfonamide], less than 100 nM. The figure for `O=S(=O)(Nc1ccc2ccncc2c1)c1cccc(Cl)c1Cl` [Compound 43, 2,3-dichloro-N-(isoquinolin-7-yl)benzenesulfonamide] is 100 to 500 nM.

The compound `O=S(=O)(Nc1ccc2ccccc2c1)c1cccc(Cl)c1Cl` [Compound 44, 2,3-dichloro-N-(naphthalen-2-yl)benzenesulfonamide] returned a concentration for half-maximal inhibition (IC50) of 100 to 500 nM. As for `Cc1c(Cl)cc(F)cc1S(=O)(=O)Nc1ccc2cc[nH]c(=O)c2c1` [Compound 45, 3-chloro-5-fluoro-2-methyl-N-(1-oxo-1,2-dihydroisoquinolin-7-yl)benzenesulfonamide], the figure is less than 100 nM. The figure for `Cc1c(F)cccc1S(=O)(=O)Nc1cccc(N2CCNC2=O)c1` [Compound 46, 3-fluoro-2-methyl-N-(3-(2-oxoimidazolidin-1-yl)phenyl)benzenesulfonamide] is greater than 1000 nM; for `O=C1NCCc2cc(Cl)c(NS(=O)(=O)c3cccc(Cl)c3Cl)cc21` [Compound 47, 2,3-dichloro-N-(6-chloro-1-oxo-1,2,3,4-tetrahydroisoquinolin-7-yl)benzenesulfonamide] it is greater than 1000 nM. The figure for `O=C1NCCc2ccc(NS(=O)(=O)N3CC4CCCC4C3)cc21` (stereo not shown) [Compound 49, N-(1-oxo-3,4-dihydro-2H-isoquinolin-7-yl)-3,3a,4,5,6,6a-hexahydro-1H-cyclopenta[c]pyrrole-2-sulfonamide] is greater than 1000 nM; for `Cc1cccc(S(=O)(=O)Nc2ccc3c(c2)C(=O)NCC3)c1C` [Compound 50, 2,3-dimethyl-N-(1-oxo-1,2,3,4-tetrahydroisoquinolin-7-yl)benzenesulfonamide] it is 100 to 500 nM; for `O=C1NCCc2ccc(NS(=O)(=O)c3cc(F)cc(F)c3F)cc21` [Compound 51, 2,3,5-trifluoro-N-(1-oxo-3,4-dihydro-2H-isoquinolin-7-yl)benzenesulfonamide] it is greater than 1000 nM. Consider `Cn1ncc2ccc(NS(=O)(=O)c3cccc(Cl)c3Cl)cc21` [Compound 52, 2,3-dichloro-N-(1-methyl-1H-indazol-6-yl)benzenesulfonamide], for which the 50% inhibitory concentration (IC50) was 100 to 500 nM. As for `O=C1NCCc2ccc(NS(=O)(=O)c3cccc(F)c3Cl)cc21` [Compound 53, 2-chloro-3-fluoro-N-(1-oxo-1,2,3,4-tetrahydroisoquinolin-7-yl)benzenesulfonamide], the figure is 100 to 500 nM; as for `O=C1NCCc2ccc(NS(=O)(=O)c3cccc(F)c3F)cc21` [Compound 54, 2,3-difluoro-N-(1-oxo-1,2,3,4-tetrahydroisoquinolin-7-yl)benzenesulfonamide], greater than 1000 nM; as for `O=C1CCCc2ccc(NS(=O)(=O)c3cccc(Cl)c3Cl)cc21` [Compound 55, 2,3-dichloro-N-(8-oxo-5,6,7,8-tetrahydronaphthalen-2-yl)benzenesulfonamide], less than 100 nM.

`O=c1[nH]cc(Br)c2ccc(NS(=O)(=O)c3cccc(Cl)c3Cl)cc12` [Compound 57, N-(4-bromo-1-oxo-1,2-dihydroisoquinolin-7-yl)-2,3-dichlorobenzenesulfonamide] returned an IC50 of 100 to 500 nM. `Cc1n[nH]c2cc(NS(=O)(=O)c3cccc(Cl)c3Cl)ccc12` [Compound 58, 2,3-dichloro-N-(3-methyl-1H-indazol-6-yl)benzenesulfonamide] came in with an IC50 of less than 100 nM. The figure for `O=S(=O)(Nc1ccc2csnc2c1)c1cccc(Cl)c1Cl` [Compound 59, N-(benzo[c]isothiazol-6-yl)-2,3-dichlorobenzenesulfonamide] is 100 to 500 nM; for `O=S(=O)(Nc1ccc2ccccc2n1)c1cccc(Cl)c1Cl` [Compound 60, 2,3-dichloro-N-(quinolin-2-yl)benzenesulfonamide] it is greater than 1000 nM; for `Cc1cccc(F)c1S(=O)(=O)Nc1ccc2c(c1)C(=O)NCC2` [Compound 61, 2-fluoro-6-methyl-N-(1-oxo-1,2,3,4-tetrahydroisoquinolin-7-yl)benzenesulfonamide] it is greater than 1000 nM. Take `O=c1[nH]cc(F)c2ccc(NS(=O)(=O)c3cccc(Cl)c3Cl)cc12` [Compound 62, 2,3-dichloro-N-(4-fluoro-1-oxo-1,2-dihydroisoquinolin-7-yl)benzenesulfonamide]: the IC50 was less than 100 nM. As for `N#Cc1c[nH]c(=O)c2cc(NS(=O)(=O)c3cccc(Cl)c3Cl)ccc12` [Compound 63, 2,3-dichloro-N-(4-cyano-1-oxo-1,2-dihydroisoquinolin-7-yl)benzenesulfonamide], the figure is 100 to 500 nM; as for `O=S(=O)(Nc1cccc(-c2ncco2)c1)c1cccc(Cl)c1Cl` [Compound 64, 2,3-dichloro-N-(3-oxazol-2-ylphenyl)benzenesulfonamide], 100 to 500 nM; as for `CC(C)c1c[nH]c(=O)c2cc(NS(=O)(=O)c3cccc(Cl)c3Cl)ccc12` [Compound 66, 2,3-dichloro-N-(4-isopropyl-1-oxo-1,2-dihydroisoquinolin-7-yl)benzenesulfonamide], greater than 1000 nM. As for `COC(=O)Cc1ccc(NS(=O)(=O)c2cccc(Cl)c2Cl)cc1` [Compound 67], the figure is 100 to 500 nM. The compound `O=c1[nH]ccc2ccc(NS(=O)(=O)c3c(Cl)ccc(Cl)c3Cl)cc12` [Compound 68, 2,3,6-trichloro-N-(1-oxo-1,2-dihydroisoquinolin-7-yl)benzenesulfonamide] registered an IC50 of less than 100 nM.

On to `O=c1[nH]ccc2ccc(NS(=O)(=O)c3ccc(F)c(Cl)c3Cl)cc12` [Compound 69, 2,3-dichloro-4-fluoro-N-(1-oxo-1,2-dihydroisoquinolin-7-yl)benzenesulfonamide], for which the IC50 is less than 100 nM. The figure for `O=c1[nH]ccc2ccc(NS(=O)(=O)c3c(F)ccc(Cl)c3Cl)cc12` [Compound 70, 2,3-dichloro-6-fluoro-N-(1-oxo-1,2-dihydroisoquinolin-7-yl)benzenesulfonamide] is less than 100 nM; for `Cc1ccc2ccc(NS(=O)(=O)c3cccc(Cl)c3Cl)cc2n1` [Compound 71, 2,3-dichloro-N-(2-methylquinolin-7-yl)benzenesulfonamide] it is 100 to 500 nM; for `Cc1c2ccc(NS(=O)(=O)c3cccc(Cl)c3Cl)cc2nn1C` [Compound 72, 2,3-dichloro-N-(2,3-dimethyl-2H-indazol-6-yl)benzenesulfonamide] it is less than 100 nM.

The compound `Cc1n[nH]c2cc(NS(=O)(=O)c3cccc(Cl)c3Cl)cc(F)c12` [Compound 73, 2,3-dichloro-N-(4-fluoro-3-methyl-1H-indazol-6-yl)benzenesulfonamide] had an IC50 of less than 100 nM. For `O=S(=O)(Nc1cc(F)c2cn[nH]c2c1)c1cccc(Cl)c1Cl` [Compound 74, 2,3-dichloro-N-(4-fluoro-1H-indazol-6-yl)benzenesulfonamide], the IC50 fell in the range of 100 to 500 nM. `O=S(=O)(Nc1ccc2c(F)n[nH]c2c1)c1cccc(Cl)c1Cl` [Compound 75, 2,3-dichloro-N-(3-fluoro-1H-indazol-6-yl)benzenesulfonamide] had a half-maximal inhibitory concentration (IC50) of less than 100 nM. `O=S(=O)(Nc1cc2ccccc2cn1)c1cccc(Cl)c1Cl` [Compound 76, 2,3-dichloro-N-(isoquinolin-3-yl)benzenesulfonamide]: the IC50 lay within 100 to 500 nM. As for `Cn1cnc2cc(NS(=O)(=O)c3cccc(Cl)c3Cl)ccc21` [Compound 77, 2,3-dichloro-N-(1-methyl-1H-benzo[d]imidazol-5-yl)benzenesulfonamide], the figure is 100 to 500 nM. The figure for `O=S(=O)(Nc1ccc2c(Cl)n[nH]c2c1)c1cccc(Cl)c1Cl` [Compound 78, 2,3-dichloro-N-(3-chloro-1H-indazol-6-yl)benzenesulfonamide] is less than 100 nM; for `Cn1ncc2cc(NS(=O)(=O)c3cccc(Cl)c3Cl)ccc21` [Compound 79, 2,3-dichloro-N-(1-methyl-1H-indazol-5-yl)benzenesulfonamide] it is 100 to 500 nM; for `N#CCn1ccc2ccc(NS(=O)(=O)c3cccc(Cl)c3Cl)cc2c1=O` [Compound 80, 2,3-dichloro-N-(2-(cyanomethyl)-1-oxo-1,2-dihydroisoquinolin-7-yl)benzenesulfonamide] it is 100 to 500 nM.

As for `Cc1n[nH]c2cc(NS(=O)(=O)c3c(Cl)ccc(Cl)c3Cl)ccc12` [Compound 81, 2,3,6-trichloro-N-(3-methyl-1H-indazol-6-yl)benzenesulfonamide], the IC50 was less than 100 nM. As for `O=c1[nH]cnc2ccc(NS(=O)(=O)c3c(Cl)ccc(Cl)c3Cl)cc12` [Compound 82, 2,3,6-trichloro-N-(4-oxo-3H-quinazolin-6-yl)benzenesulfonamide], the figure is less than 100 nM.
